{"source": "patent US20190210973A1", "about": "“COMPOUNDS AND METHODS FOR TREATMENT OF CYSTIC FIBROSIS” (The Curators of the University of Missouri, priority 2018, published 2019)", "key": {"delF508-CFTR [1]": {"target": "T1, delF508-CFTR (Homo sapiens, UniProt P13569, DEL508-508)", "T1 sequence (P13569 with tags, fused parts or gaps DEL508-508)": "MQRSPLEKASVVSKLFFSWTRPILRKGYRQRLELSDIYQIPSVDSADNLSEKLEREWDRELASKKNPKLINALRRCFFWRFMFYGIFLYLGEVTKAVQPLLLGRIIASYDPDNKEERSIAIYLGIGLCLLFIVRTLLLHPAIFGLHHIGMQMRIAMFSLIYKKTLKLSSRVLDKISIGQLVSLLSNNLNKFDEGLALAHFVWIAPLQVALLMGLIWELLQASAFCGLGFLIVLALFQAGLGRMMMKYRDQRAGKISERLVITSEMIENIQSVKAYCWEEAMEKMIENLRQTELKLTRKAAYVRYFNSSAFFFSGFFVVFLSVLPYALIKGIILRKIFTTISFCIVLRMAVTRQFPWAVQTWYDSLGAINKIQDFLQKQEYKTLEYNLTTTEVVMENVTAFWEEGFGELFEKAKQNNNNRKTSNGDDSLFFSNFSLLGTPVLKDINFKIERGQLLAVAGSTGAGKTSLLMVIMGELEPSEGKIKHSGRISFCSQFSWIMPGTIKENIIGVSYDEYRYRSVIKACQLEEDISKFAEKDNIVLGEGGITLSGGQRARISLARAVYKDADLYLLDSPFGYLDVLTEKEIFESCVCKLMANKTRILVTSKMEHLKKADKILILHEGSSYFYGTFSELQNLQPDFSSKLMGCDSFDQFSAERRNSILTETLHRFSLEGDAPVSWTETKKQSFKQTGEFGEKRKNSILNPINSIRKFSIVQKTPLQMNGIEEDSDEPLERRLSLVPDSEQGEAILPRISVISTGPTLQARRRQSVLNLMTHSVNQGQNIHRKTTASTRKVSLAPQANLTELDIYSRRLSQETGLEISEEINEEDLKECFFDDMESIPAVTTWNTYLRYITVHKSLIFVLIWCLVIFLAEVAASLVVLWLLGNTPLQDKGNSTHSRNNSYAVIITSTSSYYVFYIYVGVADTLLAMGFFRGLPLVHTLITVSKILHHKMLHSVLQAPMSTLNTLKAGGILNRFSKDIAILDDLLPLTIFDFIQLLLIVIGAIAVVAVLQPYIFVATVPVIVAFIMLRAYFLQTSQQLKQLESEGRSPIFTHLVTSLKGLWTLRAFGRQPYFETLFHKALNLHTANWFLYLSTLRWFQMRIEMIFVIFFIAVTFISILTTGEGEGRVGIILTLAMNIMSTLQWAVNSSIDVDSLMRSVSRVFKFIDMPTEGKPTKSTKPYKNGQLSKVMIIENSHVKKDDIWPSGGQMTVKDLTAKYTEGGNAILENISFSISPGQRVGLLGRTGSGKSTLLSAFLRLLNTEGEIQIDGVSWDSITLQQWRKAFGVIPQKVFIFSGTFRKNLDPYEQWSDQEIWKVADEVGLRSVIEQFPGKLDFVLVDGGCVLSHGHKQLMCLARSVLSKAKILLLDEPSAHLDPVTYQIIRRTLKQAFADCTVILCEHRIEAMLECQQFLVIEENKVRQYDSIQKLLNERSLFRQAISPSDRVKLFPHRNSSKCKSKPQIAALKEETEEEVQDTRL", "test": "Western blot of delF508-CFTR membrane (surface) expression, Band C", "type": "cell-based", "parameters": "delF508 stably-transfected C127 cells were cultured in DMEM with 10% FBS in 6-well plates; expressed in transfected cells; host or cells: C127 cells stably expressing delF508-CFTR", "details": "for influence on the effect of Lumacaftor (VX-809) on membrane expression of delF508-CFTR (words): added to 3 μM VX-809", "description": "The amount of CFTR proteins in the cell membrane can be determined with Western blot analysis. Like all membrane proteins in the cell, the CFTR protein is synthesized in the endoplasmic reticulum (ER), translocated to the Golgi apparatus for glycosylation before trafficked to the plasma membrane. Because of the addition of complex sugar molecules to CFTR, the molecular weight of “mature” or post-Golgi CFTR in the plasma membrane is higher than that of newly synthesized proteins in the ER. Thus, in Western blot, it is possible to discern two distinct bands: band C representing high molecular weight, mature CFTR, and band B low molecular weight, immature CFTR. While wild-type proteins are present mostly as band C, Class II disease-associated mutations such as delF508 causes a drastic diminution of band C, resulting in an effective decrease of N in the formula N×Po×i. The effects of the reagents (or CFTR correctors) that enhance band C can thus be quantitatively assessed with the Western blot analysis. By the same token, any interactions between different compounds, with positive or negative impact on band C, can be determined with this assay.\nWestern blot experiments were carried out in both transient expression system (CHO cells) and a stable cell line (C127 cells). CHO cells, grown in 35 mm dishes, were transfected with delF508-CFTR construct in pcDNA plasmids using X-tremeGENE (Roche). Six hours after transfection, tested compounds were added to the medium. In case of delF508-CFTR-expressing stable C127 cells, compounds were added to the medium at about 30% confluence. In both cases, cells were lysed 18 hours post drug treatment using 1×SDS loading buffer. Cell lysates were sheared by pushed through 18G needles. Whole cell lysate were separated in 4˜20% gradient gels (Bio-Rad Laboratories) and transferred onto nitrocellulose membranes. The membranes were blocked with 5% milk in TBST buffer (20 mM Tris, 137 mM NaCl, 0.1% Tween 20) at 4° C. overnight. The membranes were then probed with anti-CFTR antibody (AB596 from the Cystic Fibrosis Foundation) and anti-vimentin antibody as a control (Santa Cruz Biotechnology) at room temperature for two hours. The membranes were washed with TBST five times and then incubated with anti-mouse IgG, HRP-linked antibody (Cell Signaling Technology) at room temperature for one hour. The membranes were washed three times with TBST and developed with chemiluminescence reagent (Thermo Scientific). The luminescence was detected and quantified by a Molecular Image Chemi Doc (Bio-Rad Laboratories).\nFor Western blotting experiments, delF508 stably-transfected C127 cells were cultured in DMEM with 10% FBS in 6-well plates. Different tested compounds were added to the culture medium within 24 hours of passage to the desired concentration. Cells were lysed 18 hours post drug treatment using 1×SDS loading buffer. Cell lysates were sheared by pushed through 18G needles. Whole cell lysates were separated in 4-20% gradient gels (Bio-Rad Laboratories) and transferred onto nitrocellulose membranes. The membranes were blocked with 5% milk in TBST buffer (20 mM Tris, 137 mM NaCl, 0.1% Tween 20) at 4° C. overnight. The membranes were then probed with anti-CFTR antibody (AB660 from CFTR foundation) and anti-vimentin antibody as a loading control (Santa Cruz Biotechnology) at room temperature for two hours. The membranes were washed with TBST five times and then incubated with anti-mouse IgG, HRP linked antibody (Cell Signaling Technology) at room temperature for one hour. The membranes were washed three times with TBST and developed with chemiluminescence reagent (Thermo Scientific). The luminescence was detected by a Molecular Image Chemi Doc (Bio-Rad Laboratories). […]"}, "G551D-CFTR": {"target": "T2, G551D-CFTR (Homo sapiens, UniProt P13569, G551D)", "T2 construct": "The cDNA constructs of CFTR (G551D and delF508) were co-transfected with peGFP-C3; expressed in transfected cells; host or cells: CHO cells (ATCC), transient co-transfection with pEGFP-C3 (GFP as a separate marker, not fused)", "T2 sequence (P13569 whole entry G551D, the tested form may be a part)": "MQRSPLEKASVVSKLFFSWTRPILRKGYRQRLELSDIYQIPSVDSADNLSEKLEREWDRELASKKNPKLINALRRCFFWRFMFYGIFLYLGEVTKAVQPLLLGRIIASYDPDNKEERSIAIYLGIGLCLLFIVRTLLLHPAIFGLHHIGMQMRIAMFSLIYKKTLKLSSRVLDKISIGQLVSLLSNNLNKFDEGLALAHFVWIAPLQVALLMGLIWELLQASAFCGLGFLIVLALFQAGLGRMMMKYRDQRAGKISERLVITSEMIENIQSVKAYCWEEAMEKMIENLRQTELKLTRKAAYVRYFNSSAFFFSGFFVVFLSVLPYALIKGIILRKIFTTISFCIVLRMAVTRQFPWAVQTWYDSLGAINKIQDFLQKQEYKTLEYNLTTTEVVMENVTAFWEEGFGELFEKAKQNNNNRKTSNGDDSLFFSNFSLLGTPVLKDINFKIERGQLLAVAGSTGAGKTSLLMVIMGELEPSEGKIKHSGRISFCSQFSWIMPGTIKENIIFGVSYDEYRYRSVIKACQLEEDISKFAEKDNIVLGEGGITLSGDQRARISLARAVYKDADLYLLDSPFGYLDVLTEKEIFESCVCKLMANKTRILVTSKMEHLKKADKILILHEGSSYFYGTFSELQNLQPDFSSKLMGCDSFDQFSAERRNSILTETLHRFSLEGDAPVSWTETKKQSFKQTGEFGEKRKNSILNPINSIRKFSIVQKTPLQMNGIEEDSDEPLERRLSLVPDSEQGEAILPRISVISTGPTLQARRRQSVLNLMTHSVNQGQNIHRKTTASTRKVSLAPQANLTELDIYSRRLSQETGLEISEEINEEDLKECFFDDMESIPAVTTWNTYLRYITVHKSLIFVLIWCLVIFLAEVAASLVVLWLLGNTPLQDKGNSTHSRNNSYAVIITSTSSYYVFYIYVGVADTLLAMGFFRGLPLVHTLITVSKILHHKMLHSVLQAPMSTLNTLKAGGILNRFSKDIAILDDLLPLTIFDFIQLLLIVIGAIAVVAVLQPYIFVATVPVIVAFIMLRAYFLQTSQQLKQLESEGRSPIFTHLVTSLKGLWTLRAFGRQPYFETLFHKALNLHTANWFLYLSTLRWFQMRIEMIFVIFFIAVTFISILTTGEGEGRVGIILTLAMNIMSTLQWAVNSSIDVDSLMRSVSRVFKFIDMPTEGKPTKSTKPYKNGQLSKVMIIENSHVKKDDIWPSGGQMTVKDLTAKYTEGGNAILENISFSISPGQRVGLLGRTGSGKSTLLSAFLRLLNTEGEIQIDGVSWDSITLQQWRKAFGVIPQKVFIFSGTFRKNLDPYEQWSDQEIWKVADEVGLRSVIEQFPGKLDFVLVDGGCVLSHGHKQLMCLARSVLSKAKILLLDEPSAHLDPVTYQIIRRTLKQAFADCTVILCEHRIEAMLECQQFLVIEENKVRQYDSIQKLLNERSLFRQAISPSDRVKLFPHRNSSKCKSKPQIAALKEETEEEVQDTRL", "details": "cited from earlier work"}, "delF508-CFTR [2]": {"target": "T1, delF508-CFTR", "parameters": "delF508 stably-transfected C127 cells were cultured in DMEM with 10% FBS in 6-well plates; expressed in transfected cells; host or cells: C127 cells stably expressing delF508-CFTR", "details": "Kopeikin et al., J. Cys. Fibro. 2014; cited from earlier work"}}, "note": "Values joined by “and” are separate entries in the source; they are usually repeats but may differ in a detail not shown here. Equal entries are not always repeated. “Also recorded” adds a separate entry of the source."}
{"molecule": "CC(C)(C)c1cc(C(C)(C)C)c(NC(=O)c2c[nH]c3ccccc3c2=O)cc1O", "note": "[VX-770, Ivacaftor, reference compound]", "values": [{"measurement": "surface expression of delF508-CFTR (Band C, corrected to vimentin, DMSO = 100)", "setting": "delF508-CFTR [1]; 3 μM VX-809 + 1 μM VX-770, C127 cells, lane 6, one value per experiment series", "value": "334 ± 81, N = 5 and 182 ± 57, N = 4 and 172 ± 50, N = 4"}, {"measurement": "influence on the effect of Lumacaftor (VX-809) on membrane expression of delF508-CFTR (words)", "setting": "delF508-CFTR [1]", "value": "dampens this effect; also recorded: dampens the effect of VX-809"}, {"measurement": "influence on the effect of Lumacaftor (VX-809) on membrane expression of delF508-CFTR (words)", "setting": "delF508-CFTR [1]; listed as Ivacaftor", "value": "diminishes the effect of Lumacaftor"}, {"measurement": "increase of the Po of G551D-CFTR", "setting": "G551D-CFTR; Jih et al., PNAS 2013", "value": "8-10 folds"}, {"measurement": "function of G551D-CFTR relative to wild-type / normal", "setting": "G551D-CFTR; with Ivacaftor, literature", "value": "< 10% and ~10%"}, {"measurement": "Po of delF508-CFTR in the presence of Ivacaftor", "setting": "delF508-CFTR [2]", "value": "above 0.4"}]}
